molecular target: T1, Human plasma kallikrein (Homo sapiens, UniProt P03952); test: Kallikrein Assay (fluorogenic substrate hydrolysis, AFC release); assay type: biochemical; conditions: purified Human plasma kallikrein 0.5 nM; substrate Acetyl-K—P—R-AFC 100 mM; 50 mM HEPES pH 7.4
T1 construct: yields a heavy chain (371 amino acids) and a light chain (248 amino acids); purchased Enzyme Research Laboratories
Outline: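 Enzyme–inhibitor equilibrated before substrate dilution to ≤0.2 Km; human plasma kallikrein at 0.5 nM final, Acetyl-K-P-R-AFC substrate, HEPES pH 7.4 buffer with NaCl, CaCl2, PEG 8000, at room temperature or 37° C. Linear-phase fluorescence rate gives percent inhibition, four-parameter logistic IC50, then Cheng-Prusoff Ki.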

T1 sequence (P03952 391-638 limits assumed): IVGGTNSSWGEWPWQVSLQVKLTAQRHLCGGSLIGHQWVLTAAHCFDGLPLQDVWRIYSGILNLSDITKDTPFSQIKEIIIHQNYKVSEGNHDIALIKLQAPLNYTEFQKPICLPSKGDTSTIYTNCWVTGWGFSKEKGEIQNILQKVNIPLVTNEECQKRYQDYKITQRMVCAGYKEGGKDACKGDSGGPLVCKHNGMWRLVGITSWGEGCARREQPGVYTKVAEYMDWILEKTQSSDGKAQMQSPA
T1 sequence (P03952 20-390 partner limits assumed): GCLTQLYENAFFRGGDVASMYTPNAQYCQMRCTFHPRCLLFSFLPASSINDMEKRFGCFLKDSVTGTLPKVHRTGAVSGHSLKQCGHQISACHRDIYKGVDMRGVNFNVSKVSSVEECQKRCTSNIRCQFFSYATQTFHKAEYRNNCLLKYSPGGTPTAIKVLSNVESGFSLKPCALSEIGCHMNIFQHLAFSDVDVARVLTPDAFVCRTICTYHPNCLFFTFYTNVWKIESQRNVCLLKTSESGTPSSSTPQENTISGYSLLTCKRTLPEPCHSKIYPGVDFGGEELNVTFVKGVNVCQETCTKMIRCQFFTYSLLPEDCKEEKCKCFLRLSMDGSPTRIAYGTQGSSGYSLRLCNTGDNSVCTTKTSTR

| Structure (SMILES) | IC50 [nM] |
| --- | --- |
| Cc1cc(N2C[C@H]3C[C@H]3C2=O)ncc1C(C)n1cc(C(=O)N[C@H]2C[C@@H](c3cc(Cl)ccc3OC(F)F)C2)nn1 (single isomer, unassigned) [Example 69, N-((cis)-3-(5-chloro-2-(difluoromethoxy)phenyl)cyclobutyl)-1-((R or S)-1-(4-methyl-6-((1R,5S)-2-oxo-3-azabicyclo[3.1.0]hexan-3-yl)pyridin-3-yl)ethyl)-1H-1,2,3-triazole-4-carboxamide] | 2790 |
| Cc1cc([C@@H](C)n2cc(C(=O)N[C@H]3C[C@@H](c4cc(Cl)ccc4C#N)C3)cn2)cnc1N1C[C@H]2C[C@H]2C1=O (single isomer, unassigned) [Example 6] | 0.7 |
| COCc1nn(C(C)c2cnc(N3C[C@H]4C[C@H]4C3=O)cc2C)cc1C(=O)N[C@H]1C[C@@H](c2cc(Cl)ccc2C#N)C1 (single isomer, unassigned) [Example 49, N-((cis)-3-(5-chloro-2-cyanophenyl)cyclobutyl)-3-(methoxymethyl)-1-((R or S)-1-(4-methyl-6-((1R,5S)-2-oxo-3-azabicyclo[3.1.0]hexan-3-yl)pyridin-3-yl)ethyl)-1H-pyrazole-4-carboxamide] | 0.4 |
| Cc1cc(C(C)n2cc(C(=O)N[C@H]3C[C@@H](c4cc(Cl)ccc4C#N)C3)cn2)nnc1N1C[C@H]2C[C@H]2C1=O (single isomer, unassigned) [Example 31, N-((cis)-3-(5-chloro-2-cyanophenyl)cyclobutyl)-1-((S or R)-1-(5-methyl-6-((1R,5S)-2-oxo-3-azabicyclo[3.1.0]hexan-3-yl)pyridazin-3-yl)ethyl)-1H-pyrazole-4-carboxamide] | 7.3 |
| Cc1cc([C@H](C)n2cc(C(=O)N[C@H]3C[C@@H](c4cc(Cl)ccc4C#N)C3)nn2)cnc1N1C[C@H]2C[C@H]2C1=O (single isomer, unassigned) [Example 56] | 1.5 |
| CC(c1cnc(N2C[C@H]3C[C@H]3C2=O)nc1)n1cc(C(=O)N[C@H]2C[C@@H](c3cc(Cl)ccc3C#N)C2)c(C#N)n1 (single isomer, unassigned) [Example 17, N-((cis)-3-(5-chloro-2-cyanophenyl)cyclobutyl)-3-cyano-1-((R or S)-1-(2-((1R,5S)-2-oxo-3-azabicyclo[3.1.0]hexan-3-yl)pyrimidin-5-yl)ethyl)-1H-pyrazole-4-carboxamide] | 5.5 |
| Cc1ccc(C#N)c([C@H]2C[C@@H](NC(=O)c3cn(C(C)c4cnc(N5C[C@H]6C[C@H]6C5=O)cc4C)nn3)C2)n1 (single isomer, unassigned) [Example 68, N-((cis)-3-(3-cyano-6-methylpyridin-2-yl)cyclobutyl)-1-((R or S)-1-(4-methyl-6-((1R,5S)-2-oxo-3-azabicyclo[3.1.0]hexan-3-yl)pyridin-3-yl)ethyl)-1H-1,2,3-triazole-4-carboxamide] | 1.9 |

Continued, values first:

| IC50 [nM] | Structure (SMILES) |
| --- | --- |
| 0.9 | Cc1c([C@H](C)n2cc(C(=O)N[C@H]3C[C@@H](c4cc(Cl)ccc4C(N)=O)C3)nn2)cnc(N2C[C@H]3C[C@H]3C2=O)c1C [Example 158] |
| 1.9 | Cc1c([C@@H](C)n2cc(C(=O)NC3CC(c4cc(Cl)ccc4C#N)C3)cn2)cnc(N2C[C@H]3C[C@H]3C2=O)c1Cl (single isomer, unassigned) [Example 167] |
| 1.8 | COc1cc(C(C)n2cc(C(=O)N[C@H]3C[C@@H](c4cc(Cl)ccc4C#N)C3)nn2)cnc1N1C[C@H]2C[C@H]2C1=O (single isomer, unassigned) [Example 101, N-((cis)-3-(5-chloro-2-cyanophenyl)cyclobutyl)-1-((R or S)-1-(5-methoxy-6-((1R,5S)-2-oxo-3-azabicyclo[3.1.0]hexan-3-yl)pyridin-3-yl)ethyl)-1H-1,2,3-triazole-4-carboxamide] |
